Here are results for 21 molecules from US9409868B2, “Inhibitors of rho associated protein kinases (ROCK) and methods of use” (H. LEE MOFFITT CANCER CENTER AND RESEARCH INSTITUTE, INC., priority 2012, dated 2016).

Assay [1] addresses ROCK1 (Homo sapiens (Human), UniProt Q13464). Put plainly: Z-Lyte FRET kinase assay, ROCK1. It counts as biochemical. The source says:
(§1) Kinase Assay. A robust FRET-based, enzyme-coupled assay format, Z-Lyte® Kinase Assay Ser/[…] Peptide Kit (Invitrogen, cat. PV3793), was employed in this study to monitor inhibition of ROCK1 (Invitrogen, cat. PV3691) and ROCK2 (Invitrogen, cat. PV3759) enzyme activities. […] The substrate contains both coumarin and fluorescein and only uncleaved […] substrate will undergo FRET. […] A known inhibitor, Y-27632 (Tocris Bioscience, cat. 1254), is used as a control compound.

Assay [2] concerns the target T1, ROCK2 (Homo sapiens (Human), UniProt O75116). The experiment in a line: Z-Lyte FRET kinase assay, ROCK2. It counts as biochemical.
Text: as §1

Assay [3] addresses Aurora-A (Homo sapiens (Human), UniProt O14965). The experiment in a line: Aurora-A inhibition (selectivity). It counts as biochemical. The note with it: FIG. 2.
Assay [4] has as its target T1, ROCK2. As to conditions: Feng et al. 2008; read-out: ROCK2 enzymatic activity IC50 (reported); cited from earlier work.
In assay [5] the test system is MDA-MB-231 cells. The experiment in a line: Wound-healing scratch migration assay. It counts as cell-based, human. The note with it: for inhibition of migration (wound-healing scratch assay): FIG. 8a. Here is the method: Wound-Healing-Migration Assay. MDA-MB-231 cells were seeded at 4_105 cells per well in a 6-well plate and allowed to grow overnight at 37 1C and 5% CO2. The cells were starved for 24 h and scratched. The cells were then treated with different concentrations of RKIs in regular growth media for 24 h. Images of the scratch were acquired at 0 h and 24 h.

In assay [6] the test system is MDA-MB-231 cells. The experiment in a line: Soft agar anchorage-independent growth assay. It counts as cell-based, human. On the procedure:
Soft Agar Assay. MDA-MB-231 cells were seeded in a 12-well tissue culture plate at 1200 cells per well in regular growth media and 0.3% agar. The cells were treated with different doses of RKI-11 and RKI-18, allowed to grow for 4 weeks, after which the colonies were stained overnight with 1 mg/ml MTT and counted.

Assay [7] has as its system MDA-MB-231 cells. The experiment in a line: Matrigel Transwell invasion assay. Format: cell-based, human. As to conditions: for inhibition of invasion (figure legend): FIG. 8. On the procedure: Invasion Assay. Invasion assay was performed in Corning Transwell inserts coated with Matrigel. MDA-MB-231 cells were seeded at 3.5_105 and allowed to grow overnight in a 6-well plate. The cells were treated with either vehicle or different doses of RKIs for 24 h. After treatment, the cells were trypsinized, resuspended and plated in the inserts. The bottom chamber contained 20% FBS as the ‘chemoattractant’. The cells were kept in the incubator for 48 h. After incubation, the cells were stained and membrane was quantified.

The subject of assay [8] is NIH 3T3 cells. The experiment in a line: Cell morphology assay (phalloidin staining) in starved NIH 3T3 cells. It counts as cell-based. Also on record: dose or concentration left out as unconfirmed. The note with it: starved NIH 3T3, FIG. 6. Here is the method:
Cell Morphology Assay. NIH 3T3 cells were plated at 8000 cells per well in 8-chamber slide in serum-free media (serum starvation) for 24 h. After serum starvation, the cells were treated with vehicle or the RKIs for 1 h. After treatment, the cells were stimulated with […] LPA, 200 ng/ml bradykinin or 30 ng/ml PDGF for 30 min. After stimulation, the cells were fixed with 4% paraformaldehyde, permeabilized using 0.1% Triton X-100 and stained with Texas-Red phalloidin (Cat no. T7471) (Invitrogen, Eugene, Oreg., USA) and DAPI (40,6 diamidino-2-phenylindole: counterstains DNA) (Cat no. H-1200; Vector Laboratories, Burlingame, Calif., USA). The cells were imaged using Zeiss Upright Fluorescence Microscope.

Assay [9] relates to MDA-MB-231 cells. Put plainly: MTT assay, anchorage-dependent proliferation. Format: cell-based, human. On the procedure: MTT Assay. MTT assay was performed to determine the effects of RKIs on anchoragedependent cell proliferation. Briefly, cells were plated in a 96-well tissue culture plate (1200 cells per well) and incubated for 24 h. After incubation, the cells were treated with vehicle or increasing concentrations of RKI-11 or RKI-18 ([…]). After 72 h incubation, freshly prepared MTT (2 mg/ml) was added to each well and incubated for 3 h. After incubation, the plates were read at 540 nm.

The subject of assay [10] is MDA-MB-231 cells. The experiment in a line: Apoptosis by caspase 3 activation and PARP cleavage. Format: cell-based, human. As to conditions: up to 30 mM (so in the source).
In assay [11] the test system is phosphorylation of MLC2 (ROCK substrate) in MDA-MB-231 cells. The experiment in a line: Western blot of MLC2 phosphorylation in MDA-MB-231 breast cancer cells. It counts as cell-based, human. The note with it: 1 hr, MDA-MB-231, FIG. 4. Here is the method:
Western Blot Analysis. MDA-MB-468, MDA-MB-231, MCF-7, DU-145, H460, A549, HT29 and HCT116 cells (ATCC, Rockville, Md., USA) were plated in 6-well tissue culture plate. The cells were then treated next day with different concentrations of the RKIs for 1 h. After incubation, the cells were harvested, lysed, quantified and blotted for P-MLC2 (Cat no. 3671S), total-MLC2 (Cat no. 3672S), P-MEK (S298) (Cat no. 9128S), total-MEK (Cat no. 9122S), P-S6 (Cat no. 2155S), total-S6 (2217S), P-Erk (Cat no. 9101L), total Erk (Cat no. 9102L), P-Akt (Cat no. 9271L), total Akt (Cat no. 9272L) (Cell Signaling, Danvers, Mass., USA) and tubulin (Cat no. 5168) (Sigma, St Louis, Mo., USA) antibodies as described by us previously

Where two headings read alike, the source gives them in different places.

Chain of ROCK1 (Q13464 whole entry): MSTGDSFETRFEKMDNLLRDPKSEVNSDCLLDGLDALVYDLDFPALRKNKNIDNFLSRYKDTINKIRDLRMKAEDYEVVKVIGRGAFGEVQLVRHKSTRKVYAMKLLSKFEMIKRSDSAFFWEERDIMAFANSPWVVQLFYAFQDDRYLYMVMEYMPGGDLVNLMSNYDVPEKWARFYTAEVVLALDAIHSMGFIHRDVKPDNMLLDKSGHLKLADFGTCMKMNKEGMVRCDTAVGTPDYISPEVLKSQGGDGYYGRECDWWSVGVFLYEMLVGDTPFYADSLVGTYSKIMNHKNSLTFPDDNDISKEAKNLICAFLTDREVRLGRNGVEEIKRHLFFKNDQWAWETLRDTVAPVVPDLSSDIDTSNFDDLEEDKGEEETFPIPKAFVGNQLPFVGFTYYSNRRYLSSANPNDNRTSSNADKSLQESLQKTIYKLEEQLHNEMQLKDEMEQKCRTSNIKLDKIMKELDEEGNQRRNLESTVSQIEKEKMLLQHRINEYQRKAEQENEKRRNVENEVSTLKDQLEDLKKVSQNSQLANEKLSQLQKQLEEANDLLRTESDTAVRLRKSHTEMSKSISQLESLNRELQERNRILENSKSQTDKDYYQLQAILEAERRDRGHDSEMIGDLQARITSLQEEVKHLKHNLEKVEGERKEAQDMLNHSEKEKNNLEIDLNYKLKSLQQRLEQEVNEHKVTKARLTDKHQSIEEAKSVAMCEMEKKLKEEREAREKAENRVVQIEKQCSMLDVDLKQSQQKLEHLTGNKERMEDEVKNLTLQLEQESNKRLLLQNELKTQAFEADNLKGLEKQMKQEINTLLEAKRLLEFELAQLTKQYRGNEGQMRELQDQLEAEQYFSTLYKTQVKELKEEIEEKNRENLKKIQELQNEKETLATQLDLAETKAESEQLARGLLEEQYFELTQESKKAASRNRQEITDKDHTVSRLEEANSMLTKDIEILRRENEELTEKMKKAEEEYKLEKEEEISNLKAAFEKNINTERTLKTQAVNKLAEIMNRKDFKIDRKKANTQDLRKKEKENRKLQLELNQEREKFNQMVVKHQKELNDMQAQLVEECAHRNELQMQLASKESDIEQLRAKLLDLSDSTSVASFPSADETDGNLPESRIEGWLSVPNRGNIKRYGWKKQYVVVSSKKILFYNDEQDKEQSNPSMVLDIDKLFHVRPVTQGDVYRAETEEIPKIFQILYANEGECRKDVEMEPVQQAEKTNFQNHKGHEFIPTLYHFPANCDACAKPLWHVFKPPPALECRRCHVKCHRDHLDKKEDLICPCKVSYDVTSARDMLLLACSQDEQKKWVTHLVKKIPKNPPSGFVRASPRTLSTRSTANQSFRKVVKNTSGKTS
Chain of Aurora-A (O14965 whole entry): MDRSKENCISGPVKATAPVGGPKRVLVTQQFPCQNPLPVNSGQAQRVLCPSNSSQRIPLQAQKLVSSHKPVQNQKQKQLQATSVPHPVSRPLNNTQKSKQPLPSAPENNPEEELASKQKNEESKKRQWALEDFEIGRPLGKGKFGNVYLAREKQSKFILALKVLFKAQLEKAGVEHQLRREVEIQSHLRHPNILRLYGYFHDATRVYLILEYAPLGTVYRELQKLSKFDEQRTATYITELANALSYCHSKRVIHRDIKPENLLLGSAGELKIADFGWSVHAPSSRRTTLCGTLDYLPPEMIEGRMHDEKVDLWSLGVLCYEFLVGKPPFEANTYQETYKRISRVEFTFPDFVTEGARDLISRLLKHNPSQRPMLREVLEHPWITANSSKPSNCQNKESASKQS

`O=C(Nc1nc(-c2ccncc2)cs1)C1COc2ccccc2O1` (stereo not shown) [CID5056270, reference compound]: the half-inhibitory concentration (IC50) in [1] (values in nM) is 13 nM; in assay [2] (values in nM), 0.56 nM; in assay [3], greater than 100 µM; in [4], less than 0.003 µM.

For `O=C(Nc1ccncc1)c1cccnc1` [Compound 3, N-(Pyridin-4-yl)nicotinamide], the IC50 in assay [1] (triplicate experiments) was 75500 nM; in assay [2] (triplicate experiments), 55900 ± 11300 nM.

On to `O=C(Nc1ccncc1)c1cnccc1Cl` [Compound 4, 4-Chloro-N-(pyridin-4-yl)nicotinamide], for which the IC50 in [1] (triplicate experiments) was 72500 ± 6800 nM; in [2] (triplicate experiments) it was 221000 ± 25700 nM.

Take `O=C(Nc1ccncc1)c1cncc(Br)c1` [Compound 5, 5-Bromo-N-(pyridin-4-yl)nicotinamide]: the IC50 is 270000 ± 51000 nM in assay [1] (triplicate experiments) and 357000 ± 35300 nM in assay [2] (triplicate experiments).

Consider `Nc1ccc2[nH]ncc2c1` [Compound 8, 5-Aminoindazole], for which the IC50 in assay [1] amounted to 181000 nM; in assay [2] it was 120000 nM.

In the case of `CN(C)C(=O)Nc1ccc2[nH]ncc2c1` [Compound 10, 3-(1H-Indazol-5-yl)-1,1-dimethylurea], the figures for the IC50 in assay [1] (triplicate experiments) and in assay [2] (triplicate experiments) were 59000 nM and 36100 ± 5900 nM, respectively.

`O=C(Nc1ccccc1)Nc1ccc2[nH]ncc2c1` [Compound 11, 1-(1H-Indazol-5-yl)-3-phenylurea] gave a concentration for half-maximal inhibition (IC50) in assay [1] (triplicate experiments) of 157000 nM. The “inhibition of migration (wound-healing scratch assay)” value in assay [5] (at 60 mM (so in the source)) is recorded as “did not inhibit”. In addition, 62000 nM corresponded to half-maximal inhibition in assay [2] (triplicate experiments) (IC50). Besides, the “effect on anchorage independent growth” value in [6] (at 60 mM (so in the source)) was “little effect”. In addition, the “inhibition of invasion (figure legend)” value in assay [7] was “not”. In addition, the “effect on cell invasion” value in assay [7] (at 60 mM (so in the source), FIG. 8b) is reported as “no effect”. In assay [8], the “LPA-induced stress fiber formation” value was “not” and the bradykinin-induced filopodia formation result is “not”.

Regarding `CN(CCc1ccccc1)C(=O)Nc1ccc2[nH]ncc2c1` [Compound 13, 3-(1H-Indazol-5-yl)-1-methyl-1-phenethylurea], the concentration for half-maximal inhibition (IC50) in [1] (triplicate experiments) was 21500 ± 7300 nM; in [2] (triplicate experiments), 7500 ± 1700 nM.

With `O=C(Nc1ccc2[nH]ncc2c1)N[C@H](CO)Cc1ccccc1` [Compound 14, (S)-1-(1-Hydroxy-3-phenylpropan-2-yl)-3-(1H-indazol-5-yl)urea], the IC50 in [1] (triplicate experiments) amounted to 4600 ± 2100 nM; in assay [2] (triplicate experiments) it was 2300 ± 600 nM.

With `O=C(NCC(O)c1ccccc1)Nc1ccc2[nH]ncc2c1` (stereo not shown) [Compound 15, 1-(2-Hydroxy-2-phenylethyl)-3-(1H-indazol-5-yl)urea], the results for the IC50 in assay [1] (triplicate experiments) and in assay [2] were 2900 ± 800 nM and 1500 ± 400 nM, respectively.

Take `COc1ccc(CCNC(=O)Nc2ccc3[nH]ncc3c2)cc1` [Compound 16, 1-(1H-Indazol-5-yl)-3-(4-methoxyphenethyl)urea]: the IC50 in assay [1] (triplicate experiments) was 2600 ± 600 nM; in [2] (triplicate experiments), 800 ± 300 nM.

Regarding `O=C(NCCc1ccc(Cl)cc1)Nc1ccc2[nH]ncc2c1` [Compound 17, 1-(4-Chlorophenethyl)-3-(1H-indazol-5-yl)urea], the figures for the IC50 in [1] (triplicate experiments) and in assay [2] (triplicate experiments) were 2200 ± 1000 nM and 1100 ± 300 nM, respectively.

As to `O=C(NCCc1ccccc1)Nc1ccc2[nH]ncc2c1` [Compound 18, 1-(1H-Indazol-5-yl)-3-phenethylurea], the IC50 in [9] (Homo sapiens, MDA-MB-231, 72 h, unit given as mM) came to 0.032 mM. In assay [9] (MDA-MB-231), the “potency at anchorage-dependent proliferation compared to anchorage-independent growth” value is listed as “four-fold less potent”. Moreover, the “inhibition of migration (figure legend)” value in assay [5] (FIG. 8) is “inhibits”. In assay [5] (concentration-dependent manner starting at 3 mM (so in the source)), the “inhibition of migration (wound-healing scratch assay)” value is reported as “inhibited the migration”. Further, the “induction of apoptosis (caspase 3 activation and PARP cleavage)” value in assay [10] was “did not induce apoptosis”. Besides, the P-MLC2 levels entry in assay [11] (10 μM) was “greatly decreased”. Further, in assay [6] (MDA-MB-231, FIG. 7), the “inhibition of anchorage-independent growth (figure legend)” value is listed as “inhibits”. In addition, the “inhibition of invasion (figure legend)” value in assay [7] is “inhibits”. In assay [8] (listed as RKI-18), the “LPA-induced stress fiber formation” value is “inhibits”, the PDGF-induced lamelipodia formation entry is on record as “inhibits” and the bradykinin-induced filopodia formation result is “inhibits”.

Take `O=C(NCCCc1ccccc1)Nc1ccc2[nH]ncc2c1` [Compound 19, 1-(1H-indazol-5-yl)-3-(3-phenylpropyl)urea]: the IC50 in [1] (triplicate experiments) is 2460 ± 550 nM; in [2] (triplicate experiments) it was 1070 nM.

Regarding `O=C(NCc1ccccc1)Nc1ccc(-c2ccncc2)cc1` [Compound 22, 1-Benzyl-3-(4-(pyridin-4-yl)phenyl)urea], the figures for the IC50 in assay [1] (triplicate experiments) and in assay [2] (triplicate experiments) were 1150 nM and 260 nM, respectively.

As for `O=C(Nc1ccc(-c2ccncc2)cc1)N[C@@H](CO)c1ccccc1` [Compound 23, (R)-1-(2-Hydroxy-1-phenylethyl)-3-(4-(pyridin-4-yl)phenyl)urea], the “LE (Ligand Efficiency), ROCK1” value in assay [1] was 0.28. Moreover, the IC50 was 9000 nM in assay [1] (triplicate experiments), 8000 nM in assay [2] (triplicate experiments) and 7520 nM in assay [2] (values in nM). In [2], the “LE (Ligand Efficiency), ROCK2” value is given as 0.28. Further, the P-MLC2 levels result is listed as “no effect” in assay [11] (1 μM) and “less potent than 24” in assay [11] (10 μM).

Consider `O=C(Nc1ccc(-c2ccncc2)cc1)N[C@H](CO)c1ccccc1` [Compound 24, (S)-1-(2-Hydroxy-1-phenylethyl)-3-(4-(pyridin-4-yl)phenyl)urea], for which the “LE (Ligand Efficiency), ROCK1” value in assay [1] stood at 0.31. Also, the “fold difference for ROCK1” value in assay [1] (24 (S) versus 23 (R)) is given as “five fold”. Besides, the IC50 in assay [1] (triplicate experiments) was 1700 nM; in assay [2] (triplicate experiments), 100 nM. Moreover, the “LE (Ligand Efficiency), ROCK2” value in [2] is reported as 0.38. Besides, the “fold more kinase inhibitory activity for ROCK 2” value in assay [2] (24 (S) versus 23 (R)) worked out at 75 fold. Besides, the P-MLC2 levels entry in assay [11] (1 μM) and in assay [11] (10 μM) was “greatly decreased” throughout.

With `O=C(NCCc1ccccc1)Nc1ccc(-c2ccncc2)cc1` [Compound 25, 1-Phenethyl-3-(4-(pyridin-4-yl)phenyl)urea], the IC50 amounted to 2610 ± 410 nM in [1] (triplicate experiments) and 19800 ± 3290 nM in assay [2] (triplicate experiments).

Take `O=C(Nc1ccc(-c2ccncc2)cc1)N[C@@H](CO)Cc1ccccc1` [Compound 26, (R)-1-(1-Hydroxy-3-phenylpropan-2-yl)-3-(4-(pyridin-4-yl)phenyl)urea]: the IC50 in assay [1] (triplicate experiments) was determined as 1410 nM; in assay [2] (triplicate experiments), 5360 nM.

With `O=C(Nc1ccc(-c2ccncc2)cc1)N[C@H](CO)Cc1ccccc1` [Compound 27, (S)-1-(1-Hydroxy-3-phenylpropan-2-yl)-3-(4-(pyridin-4-yl)phenyl)urea], the IC50 in assay [1] (triplicate experiments) came out at 31000 ± 10500 nM; in assay [2] (triplicate experiments) it was 32900 ± 4670 nM.

In the case of `CC(=O)Nc1ccc2[nH]ncc2c1` [N-(1H-indazole-5-yl)acetamide], the half-maximal inhibitory concentration (IC50) in assay [1] (triplicate experiments) turned out to be 65000 nM; in [2] (triplicate experiments) it was 40000 nM.
